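Grown in 96-well plates, cells were treated for 48 hours with each compound at five concentrations. Insufficient inhibition: endpoint recorded as highest concentration tested. GI50 is the concentration that inhibits growth by half.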 Active and inactive are the calls of the source. Cut-off read from the data, not from the text of the source: active = GI50 up to about 1.1 µM and inactive = higher.
What was measured:
Experiment in all cases: DTP human tumour cell line panel, 48 h
ACHN = system: ACHN
SF-539 = system: SF-539
HT-29 = system: HT-29
OVCAR-4 = system: OVCAR-4
HOP-92 = system: HOP-92
CAKI-1 = system: CAKI-1
TK-10 = system: TK-10
IGROV-1 = system: IGROV-1
SK-OV-3 = system: SK-OV-3
SNB-19 = system: SNB-19
M14 = system: M14
SK-MEL-2 = system: SK-MEL-2
K562 = system: K562
SR = system: SR
NCI-H226 = system: NCI-H226
UACC-62 = system: UACC-62
EKVX = system: EKVX
SW-620 = system: SW-620
DU-145 = system: DU-145
MDA-MB-231 = system: MDA-MB-231

Measured: GI50

Cc1cc(NS(=O)(=O)c2ccc(Nc3c4ccccc4nc4c(C(=O)N5CCN(CCO)CC5)cccc34)cc2)no1
inactive: ACHN > 100 µM | SF-539 > 100 µM | HT-29 > 100 µM | OVCAR-4 > 100 µM | HOP-92 > 100 µM | CAKI-1 > 100 µM | TK-10 > 100 µM | IGROV-1 > 100 µM | SK-OV-3 > 100 µM | SNB-19 > 100 µM | M14 > 100 µM | SK-MEL-2 > 100 µM | K562 57.8 µM | SR 66.5 µM | NCI-H226 > 100 µM | UACC-62 > 100 µM | EKVX > 100 µM | SW-620 > 100 µM

CCN(CC)c1c(C(C)(C)C)c(=O)n2ccsc2c1OC(C)=O
inactive: ACHN 16.2 µM | SF-539 19.1 µM | HT-29 14.8 µM | OVCAR-4 15.2 µM | HOP-92 17.4 µM | CAKI-1 18.6 µM | TK-10 19.8 µM | DU-145 19.9 µM | MDA-MB-231 17.8 µM | IGROV-1 16.8 µM | SK-OV-3 18.2 µM | SNB-19 16.6 µM | M14 17.3 µM | SK-MEL-2 17.1 µM | K562 17.6 µM | NCI-H226 15.4 µM | UACC-62 16.9 µM | EKVX 15.1 µM | SW-620 16.9 µM

CC1C2(C)OC(=N)C(C#N)(C(C)O2)C1(C#N)C#N (stereo not drawn)
inactive: ACHN 33.3 µM | SF-539 22.1 µM | HT-29 28.2 µM | HOP-92 16.9 µM | CAKI-1 13.6 µM | TK-10 36.8 µM | DU-145 25.7 µM | MDA-MB-231 19.9 µM | IGROV-1 39.5 µM | SK-OV-3 > 100 µM | SNB-19 > 10 µM | M14 18.3 µM | SK-MEL-2 19.9 µM | K562 34.9 µM | NCI-H226 > 100 µM | UACC-62 19.8 µM | EKVX 30.8 µM | SW-620 16.6 µM

CC(=O)CC(=O)Nc1ccccc1[N+](=O)[O-]
inactive: ACHN > 100 µM | SF-539 > 100 µM | HT-29 > 100 µM | OVCAR-4 > 100 µM | HOP-92 > 100 µM | CAKI-1 > 100 µM | TK-10 > 100 µM | IGROV-1 > 100 µM | SK-OV-3 > 100 µM | SNB-19 > 100 µM | M14 > 100 µM | SK-MEL-2 > 100 µM | K562 > 100 µM | SR > 100 µM | NCI-H226 > 100 µM | UACC-62 > 100 µM | EKVX > 100 µM | SW-620 > 100 µM

CC(=O)O[C@H]1CCC2[C@@H]3CC[C@]4(C)CC(=O)C=C[C@]4(C)C3CC[C@@]21C (stereo partly drawn)
inactive: ACHN 49 µM | SF-539 17.7 µM | HT-29 18.1 µM | OVCAR-4 16.9 µM | HOP-92 48.2 µM | CAKI-1 83.4 µM | TK-10 54.7 µM | DU-145 > 100 µM | MDA-MB-231 31.8 µM | IGROV-1 23.8 µM | SK-OV-3 65.8 µM | SNB-19 51.3 µM | M14 19.2 µM | SK-MEL-2 20.8 µM | K562 20.2 µM | NCI-H226 25.2 µM | UACC-62 15.7 µM | EKVX 27.5 µM | SW-620 18.3 µM

Cc1cc(-c2ccccc2)nc(Nc2nc3ccccc3o2)n1
inactive: ACHN > 100 µM | SF-539 > 100 µM | HT-29 > 100 µM | OVCAR-4 > 100 µM | HOP-92 89.3 µM | CAKI-1 > 100 µM | TK-10 > 100 µM | IGROV-1 > 100 µM | SK-OV-3 > 100 µM | SNB-19 > 100 µM | M14 > 100 µM | SK-MEL-2 > 100 µM | K562 > 100 µM | SR > 100 µM | NCI-H226 > 100 µM | UACC-62 > 100 µM | EKVX > 100 µM | SW-620 > 100 µM

CCOC(=O)/C=C/C1=C(Br)[C@@]2(C)CC[C@@H]3c4ccc(O)cc4CC[C@H]3[C@@H]2C1
inactive: ACHN 15.7 µM | SF-539 17 µM | HT-29 14.6 µM | OVCAR-4 14.5 µM | HOP-92 11.6 µM | CAKI-1 16.4 µM | TK-10 17.9 µM | DU-145 6.87 µM | IGROV-1 12.2 µM | SK-OV-3 15.4 µM | SNB-19 16.6 µM | M14 11.7 µM | SK-MEL-2 14.9 µM | K562 9.98 µM | SR 7.03 µM | NCI-H226 15.2 µM | UACC-62 6.85 µM | EKVX 17.1 µM | SW-620 13.7 µM

C1=C2C3=[N+](CCCC3)CC2Cc2sccc21 (stereo not drawn)
inactive: ACHN > 100 µM | HT-29 53.2 µM | OVCAR-4 42.5 µM | HOP-92 99.8 µM | CAKI-1 > 100 µM | TK-10 > 100 µM | DU-145 > 100 µM | MDA-MB-231 > 100 µM | IGROV-1 > 100 µM | SK-OV-3 > 100 µM | SNB-19 86.9 µM | M14 > 100 µM | SK-MEL-2 > 100 µM | K562 > 100 µM | NCI-H226 > 100 µM | UACC-62 > 100 µM | EKVX 42.7 µM | SW-620 > 100 µM

O=C1Nc2ccccc2C1Cc1ccccc1 (stereo not drawn)
inactive: ACHN > 100 µM | SF-539 > 100 µM | HT-29 > 100 µM | OVCAR-4 > 100 µM | HOP-92 > 100 µM | CAKI-1 > 100 µM | TK-10 > 100 µM | DU-145 > 100 µM | IGROV-1 > 100 µM | SK-OV-3 > 100 µM | SNB-19 > 100 µM | M14 > 100 µM | SK-MEL-2 > 100 µM | K562 > 100 µM | SR > 100 µM | NCI-H226 > 100 µM | UACC-62 > 100 µM | EKVX 56.1 µM | SW-620 > 100 µM

N=C(N)c1ccc(/N=N/c2c(O)ccc3cc(O)ccc23)cc1
inactive: ACHN > 100 µM | SF-539 > 100 µM | HT-29 > 100 µM | OVCAR-4 > 100 µM | HOP-92 > 100 µM | CAKI-1 > 100 µM | TK-10 > 100 µM | MDA-MB-231 > 100 µM | IGROV-1 > 100 µM | SK-OV-3 > 100 µM | SNB-19 > 100 µM | M14 > 100 µM | SK-MEL-2 > 100 µM | K562 > 100 µM | SR 24.7 µM | NCI-H226 > 100 µM | UACC-62 > 100 µM | EKVX > 100 µM | SW-620 > 100 µM

COC(=O)[C@H](Cc1c[nH]c2ccccc12)NC(=O)OCC1OC(n2cc(C)c(=O)[nH]c2=O)CC1N=[N+]=[N-] (stereo partly drawn)
inactive: ACHN > 100 µM | HT-29 > 100 µM | OVCAR-4 > 100 µM | HOP-92 > 100 µM | CAKI-1 > 100 µM | TK-10 > 100 µM | DU-145 > 100 µM | MDA-MB-231 > 100 µM | IGROV-1 > 100 µM | SK-OV-3 > 100 µM | SNB-19 > 100 µM | M14 > 100 µM | SK-MEL-2 > 100 µM | K562 > 100 µM | NCI-H226 > 100 µM | UACC-62 61.5 µM | EKVX > 100 µM | SW-620 > 100 µM

From ChEMBL document CHEMBL1201862, “PubChem BioAssay data set” (2004)
